According to patent US10774051B2, “6-membered heterocyclic derivatives and pharmaceutical composition comprising the same” (Shionogi & Co., Ltd., priority 2015, dated 2020):

These molecules were tested against human P2X7 receptor (Homo sapiens, UniProt Q99572, R270H/Y155H) (assay: Evaluation of human P2X7 receptor inhibitory activity (Yo-Pro uptake, BzATP stimulation, FLIPR TETRA)). Conditions: 1321N1 cells stably expressing human P2X7 receptor; BzATP stimulation, Yo-Pro uptake; read-out: IC50 (antagonistic activity for the human P2X7 receptor).
Assay type: cell-based
In short: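 1321N1 cells stably expressing human P2X7 (T606C/G952A SNP variant), in HBSS buffer pH 7.4-7.5 with Yo-Pro, stimulated with BzATP; compound added 8 min after agonist. Fluorescence followed for 20 min on FLIPR; max-minus-min change gave % inhibition, IC50 by logistic fit.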
In the case of `Cc1cc2c(cc1Nc1nc(=O)c(F)cn1Cc1ccc(F)cc1)OCCO2` [Compound I-0367], the IC50 is reported as 13 nM.
In the case of `COc1cn(Cc2cc(F)cc(F)c2)c(Nc2ccc3c(c2C)COC3)nc1=O` [Compound I-0900], the IC50 is reported as 12 nM.
`COc1cn(Cc2ccccc2)c(NC2C[C@@H]3CC[C@H]2C3)nc1=O` (stereo partly shown) [Compound I-0042] was tested, and the IC50 was 830 nM.
`CCc1cc2c(cc1Nc1nc(=O)c(OC)cn1Cc1ccc(F)c(Cl)c1)CCC2` [Compound I-0242] showed an IC50 of 12 nM.
In the case of `Cc1cc2c(cc1Nc1nc(=O)c(F)cn1Cc1ccccc1)OCCO2` [Compound I-0366], the IC50 is reported as 35 nM.
Work on `Cc1c(Cl)cccc1Nc1nc(=O)c(C(=O)NC2CCOCC2)cn1Cc1ccccc1` [Compound I-0019] yielded an IC50 of 49 nM.
`COc1cn(Cc2ccc(F)c(Cl)c2)c(Nc2cc3c(cc2C)OCO3)nc1=O` [Compound I-0742] was tested, and the IC50 was 16 nM.
Molecule `COc1cn(Cc2ccc(F)c(Cl)c2)c(N[C@@H]2CCCc3ccccc32)nc1=O` [Compound I-0336] has an IC50 of 120 nM.
`COc1cn(Cc2cc(F)cc(F)c2)c(Nc2cc(C)c(OC(F)(F)F)cc2C)nc1=O` [Compound I-0924] showed an IC50 of 17 nM.

Same assay, conditions: 1321N1 cells stably expressing human P2X7 receptor; BzATP stimulation, Yo-Pro uptake; read-out: IC50 (antagonistic activity for the human P2X7 receptor), class symbol
Work on `COc1cn(Cc2ccccc2)c(Nc2cccc3[nH]c(-c4ccccc4)cc23)nc1=O` [Compound I-0527] yielded an IC50 of 500 to 1000 nM.
In the case of `COc1cn(Cc2ccccc2OC(F)F)c(Nc2cccc(Cl)c2C)nc1=O` [Compound I-0421], the IC50 is reported as 10 to 100 nM.
`CCc1c(Nc2nc(=O)c(F)cn2Cc2ccc(F)cc2)cc(OC)cc1OC` [Compound I-0314] showed an IC50 of under 10 nM.
`CCOC(=O)Cc1cn(Cc2ccccc2)c(Nc2cccc(Cl)c2C)nc1=O` [Compound I-0023] was tested, and the IC50 was 100 to 500 nM.
Work on `COc1cn(Cc2ccc(F)c(F)c2)c(Nc2ccc(N3CCOCC3)cc2C)nc1=O` [Compound I-0519] yielded an IC50 of 10 to 100 nM.
`COc1cn(Cc2ccc(F)cc2)c(Nc2cccc(Cl)c2C)nc1=O` [Compound I-0001] gave an IC50 of under 10 nM.
`CCc1ccccc1CNc1nc(=O)c(OC)cn1Cc1cc(F)cc(F)c1` [Compound I-0454] gave an IC50 of 10 to 100 nM.
Molecule `COc1cn(Cc2cc(F)cc(Cl)c2)c(Nc2cc(OC(C)C)ccc2C)nc1=O` [Compound I-0557] has an IC50 of 10 to 100 nM.
Work on `CCc1ccccc1Nc1nc(=O)c(Cl)cn1Cc1ccccc1` [Compound I-0105] yielded an IC50 of 100 to 500 nM.
Molecule `CCc1cc(OC)ccc1Nc1nc(=O)c(OC)cn1Cc1cc(F)c(F)c(F)c1` [Compound I-0573] has an IC50 of under 10 nM.
In the case of `COc1ccc(Cl)c(Nc2nc(=O)c(OC)cn2Cc2ccccc2)c1` [Compound I-0152], the IC50 is reported as 100 to 500 nM.
With `COc1cc(C)c(Nc2nc(=O)c(OC)cn2Cc2ccc(F)c(F)c2)cc1C` [Compound I-0283] the IC50 was under 10 nM.
With `CCc1cc(OC)ccc1Nc1nc(=O)c(OC)cn1Cc1cccc(Cl)c1` [Compound I-0263] the IC50 was under 10 nM.
`COc1cn(Cc2cccc(Cl)c2)c(Nc2cc(C)ccc2C)nc1=O` [Compound I-0333] showed an IC50 of 10 to 100 nM.
`COc1cn(Cc2ccccc2)c(Nc2cc3c(cc2C)OCCO3)nc1=O` [Compound I-0287] was tested, and the IC50 was 10 to 100 nM.
For `COc1cn(Cc2ccccc2)c(Nc2cc3[nH]ncc3cc2C)nc1=O` [Compound I-0221], the IC50 was 10 to 100 nM.
Molecule `Cc1c(Cl)cccc1Nc1nc(=O)c(C(=O)NCCS(C)(=O)=O)cn1Cc1ccccc1` [Compound I-0077] has an IC50 of 10 to 100 nM.
`COc1cn(Cc2cccc(C#N)c2)c(Nc2cccc(Cl)c2C)nc1=O` [Compound I-0047] gave an IC50 of 500 to 1000 nM.
For `CCOc1cc(C)c(Nc2nc(=O)c(OC)cn2Cc2cccc(Cl)c2)cc1C` [Compound I-0259], the IC50 was under 10 nM.
With `COc1cn(Cc2ccccc2)c(Nc2ccc(Cl)c(Cl)c2Cl)nc1=O` [Compound I-0132] the IC50 was 100 to 500 nM.
Work on `CCc1c(Nc2nc(=O)c(OC)cn2Cc2ccc(F)cc2)cccc1OC` [Compound I-0213] yielded an IC50 of under 10 nM.
`COc1cn(Cc2cccc(Cl)c2)c(Nc2cccc3sccc23)nc1=O` [Compound I-0484] gave an IC50 of 10 to 100 nM.
For `COc1cn(Cc2ccc(F)c(Cl)c2)c(Nc2cccc(N(C)C)c2C)nc1=O` [Compound I-0402], the IC50 was under 10 nM.
`COc1ccc(Nc2nc(=O)c(OC)cn2Cc2cccc(Cl)c2)c(C)c1` [Compound I-0234] showed an IC50 of 10 to 100 nM.
`CCc1ccc(OC)cc1Nc1nc(=O)c(OC)cn1Cc1ccccc1` [Compound I-0236] was tested, and the IC50 was 10 to 100 nM.
For `Cc1cc(C)c(Nc2nc(=O)c(F)cn2Cc2ccc(F)cc2)cc1C` [Compound I-0306], the IC50 was under 10 nM.
`CCc1cc(OC)ccc1Nc1nc(=O)c(OC)cn1Cc1ccc(F)c(Cl)c1` [Compound I-0245] gave an IC50 of under 10 nM.
Work on `COc1cn(Cc2ccc(F)c(Cl)c2)c(Nc2cc(N3CCCS3(=O)=O)ccc2C)nc1=O` [Compound I-0232] yielded an IC50 of under 10 nM.
`COc1cn(Cc2cc(F)cc(F)c2)c(Nc2ccc(N3CCOCC3)cc2C)nc1=O` [Compound I-0543] gave an IC50 of 10 to 100 nM.
`CCc1cc(Cl)ccc1Nc1nc(=O)c(OC)cn1Cc1ccc(F)c(Cl)c1` [Compound I-0545] gave an IC50 of under 10 nM.
`COc1cc(C)c(Nc2nc(=O)c(Cl)cn2Cc2ccc(F)cc2)cc1OC` [Compound I-0406] showed an IC50 of under 10 nM.

Same assay, conditions: antagonistic activity for the human P2X7 receptor; read-out: IC50
For `COc1ccc(Nc2nc(=O)c(Cl)cn2Cc2ccc(F)c(Cl)c2)c(C)c1` [Compound I-0843], the IC50 was 10 to 100 nM.
`COc1cn(Cc2cc(F)c(F)c(F)c2)c(Nc2cc3nc(C)sc3cc2C)nc1=O` [Compound I-0760] showed an IC50 of 10 to 100 nM.
`COc1cn(Cc2cc(F)cc(F)c2)c(Nc2cc(Cl)cc3[nH]ccc23)nc1=O` [Compound I-0822] showed an IC50 of 10 to 100 nM.
`Cc1cc2[nH]ccc2cc1Nc1nc(=O)c(F)cn1Cc1cc(F)c(F)c(F)c1` [Compound I-1045] gave an IC50 of under 10 nM.
`COc1cc(Nc2nc(=O)c(OC)cn2Cc2cc(F)cc(F)c2)c(C)cc1F` [Compound I-0781] was tested, and the IC50 was 10 to 100 nM.
With `Cc1cc(Nc2nc(=O)c(F)cn2Cc2cc(F)cc(F)c2)c(C)nc1OC(F)F` [Compound I-1234] the IC50 was under 10 nM.
For `Cc1cc2[nH]ncc2cc1Nc1nc(=O)c(F)cn1Cc1cc(F)cc(F)c1` [Compound I-1092], the IC50 was 10 to 100 nM.
`COc1ccc(C)c(Nc2cc(=O)c(OC)cn2Cc2ccccc2)c1` [Compound I-0952] was tested, and the IC50 was 100 to 500 nM.
`COc1ccc(Nc2nc(=O)c(F)cn2Cc2cc(F)cc(F)c2)c(C)n1` [Compound I-1037] was tested, and the IC50 was 10 to 100 nM.
`Cc1cc(F)c(C)c(Nc2nc(=O)c(F)cn2Cc2cc(F)c(F)c(F)c2)c1` [Compound I-1244] was tested, and the IC50 was under 10 nM.
Work on `COc1cn(Cc2ccccc2)c(Nc2cc(F)c(Cl)cc2C)nc1=O` [Compound I-0886] yielded an IC50 of 10 to 100 nM.
Molecule `COc1ccc(Nc2nc(=O)c(F)cn2Cc2ccc(F)c(F)c2)c(C)n1` [Compound I-1049] has an IC50 of 10 to 100 nM.
`COc1cc(F)c(Nc2nc(=O)cnn2Cc2cc(F)c(F)c(F)c2)cc1OC` [Compound I-1258] showed an IC50 of under 10 nM.
`COc1cc(C)c(Nc2cc(=O)c(OC)cn2Cc2ccc(F)c(Cl)c2)cc1C` [Compound I-0954] was tested, and the IC50 was 10 to 100 nM.
For `COc1ccc(C)c(Nc2nc(=O)c(F)cn2Cc2cc(F)cc(F)c2)c1` [Compound I-1069], the IC50 was 10 to 100 nM.
`COc1cn(Cc2ccccc2)c(Nc2cc(OC(F)F)c(C)cc2C)nc1=O` [Compound I-0875] showed an IC50 of 10 to 100 nM.
In the case of `COc1cn(Cc2cc(F)c(F)c(F)c2)c(Nc2cccc3[nH]c(=O)ccc23)nc1=O` [Compound I-0602], the IC50 is reported as 100 to 500 nM.
In the case of `COc1cn(Cc2ccc(F)c(F)c2)c(Nc2cc(-c3cccnc3)ccc2C)nc1=O` [Compound I-0764], the IC50 is reported as under 10 nM.
Molecule `COc1cc(Nc2nc(=O)c(OC)cn2Cc2cc(F)cc(Cl)c2)c(C)cc1F` [Compound I-0780] has an IC50 of 10 to 100 nM.
`COc1cc(C)c(Nc2nc(=NC#N)c(F)cn2Cc2cc(F)c(F)c(F)c2)cc1OC` [Compound I-1288] was tested, and the IC50 was 10 to 100 nM.
In the case of `COc1cn(Cc2ccc(F)c(F)c2)c(Nc2cc(OC(F)(F)F)ccc2C)nc1=O` [Compound I-0693], the IC50 is reported as 10 to 100 nM.
With `Cc1ccc(CO)cc1Nc1nc(=O)c(F)cn1Cc1ccc(F)c(Cl)c1` [Compound I-1013] the IC50 was under 10 nM.
`COc1cc(C)c(Nc2nc(=O)c(C(N)=O)cn2Cc2ccc(F)c(F)c2)cc1C` [Compound I-1158] gave an IC50 of under 10 nM.
With `CON=c1nc(Nc2cc(C)ccc2C)n(Cc2cc(F)c(F)c(F)c2)cc1F` [Compound I-1292] the IC50 was 100 to 500 nM.
`CCOc1cc(C)c(Nc2nc(=O)c(OC)cn2Cc2cc(F)c(F)c(F)c2)cc1F` [Compound I-0868] gave an IC50 of 10 to 100 nM.
For `Cc1ccc(-c2cccn(C)c2=O)cc1Nc1nc(=O)c(C)cn1Cc1cc(F)c(F)c(F)c1` [Compound I-1143], the IC50 was 10 to 100 nM.
`Cc1cc(C)c(Nc2nc(=O)c(F)cn2Cc2cc(F)c(F)c(F)c2)cc1CO` [Compound I-1110] was tested, and the IC50 was under 10 nM.
Molecule `COc1cn(Cc2ccccc2)c(Nc2cc(-c3ccnn3C)ccc2C)nc1=O` [Compound I-0782] has an IC50 of 100 to 500 nM.
`COc1cn(Cc2ccc(F)c(F)c2)c(Nc2cc(-c3ccc(C)o3)ccc2C)nc1=O` [Compound I-0767] gave an IC50 of 10 to 100 nM.
`COc1ccc(C)c(Nc2nc(=O)c(OC)cn2Cc2cc(F)c(F)c(F)c2)c1` [Compound I-0625] was tested, and the IC50 was under 10 nM.
Work on `COc1ccc(Nc2nc(=O)cnn2Cc2ccc(F)c(Cl)c2)c(C)c1` [Compound I-1270] yielded an IC50 of under 10 nM.
For `COCc1ccc(C)c(Nc2nc(=O)c(F)cn2Cc2cc(F)cc(F)c2)c1` [Compound I-0996], the IC50 was 10 to 100 nM.
`COc1ccc(C)c(Nc2nc(=O)c(C(=O)O)cn2Cc2cc(F)c(F)c(F)c2)c1` [Compound I-1128] showed an IC50 of 10 to 100 nM.
Work on `COc1cc(C)c(Nc2nc(=O)ccn2Cc2ccc(F)c(Cl)c2)cc1OC` [Compound I-1159] yielded an IC50 of under 10 nM.
For `COc1ccc(Nc2nc(=O)cnn2Cc2cc(F)cc(Cl)c2)c(C)c1` [Compound I-1269], the IC50 was 10 to 100 nM.
`Cc1nc2cc(Cl)c(Nc3nc(=O)c(F)cn3Cc3ccc(F)c(F)c3)cc2o1` [Compound I-1076] was tested, and the IC50 was under 10 nM.
`Cc1nc2cc(C)c(Nc3nc(=NC#N)c(F)cn3Cc3cc(F)c(F)c(F)c3)cc2s1` [Compound I-1286] was tested, and the IC50 was under 10 nM.
`COc1cnc(Nc2cccc(Cl)c2C)n(Cc2ccc(F)c(F)c2)c1=O` [Compound I-0973] gave an IC50 of 100 to 500 nM.
In the case of `Cc1ccc(OCCO)cc1Nc1nc(=O)c(F)cn1Cc1cc(F)c(F)c(F)c1` [Compound I-1205], the IC50 is reported as under 10 nM.
